Measured values published in patent US12052991B2, “Substituted pyridinyloxybenzenes and salts thereof and use thereof as herbicidal agents” (Bayer Aktiengesellschaft, priority 2018, dated 2024).

Key:
Type in all cases: in vivo
[1] = test system: Poa annua (POAAN); experiment: Herbicidal post-emergence action (Table B3); details: rated visually after about 3 weeks, 100% = plants have died, 0% = like control plants
Procedure, shortened: (§1)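 Greenhouse pot-grown weeds in sandy loam, sprayed at the one-leaf stage (2–3 weeks post-sowing) with WP or EC formulations plus 0.5% additive at 600 l/ha water, at 1280 or 320 g/ha. Visual % activity versus untreated controls rated about 3 weeks later (100% = dead).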

[2] = test system: Abutilon theophrasti (ABUTH); experiment: Herbicidal post-emergence action (Table B5); details: rated visually after about 3 weeks, 100% = plants have died, 0% = like control plants
Procedure, shortened: as §1

[3] = test system: Amaranthus retroflexus (AMARE); experiment: Herbicidal post-emergence action (Table B6); details: visual rating about 3 weeks after treatment, 100% = plants have died, 0% = like control plants
Procedure, shortened: as §1

[4] = test system: Matricaria inodora (MATIN); experiment: Herbicidal post-emergence action (Table B7); details: rated visually after about 3 weeks, 100% = plants have died, 0% = like control plants
Method: Seeds of mono- and dicotyledonous weed plants were placed in plastic pots in sandy loam soil (doubly sown with in each case one species of mono- or dicotyledonous weed plants per pot), covered with soil and cultivated in a greenhouse under controlled growth conditions. 2 to 3 weeks after sowing, the test plants were treated at the one-leaf stage. The compounds of the invention, formulated in the form of wettable powders (WP) or as emulsion concentrates (EC), were applied onto the green parts of the plants as aqueous suspension or emulsion with addition of 0.5% additive at a water application rate of 600 liters per hectare (converted). After the test plants had been kept in the greenhouse under optimum growth conditions for about 3 weeks, the activity of the preparations was rated visually in comparison to untreated controls. For example, 100% activity=the plants have died, 0% activity=like control plants. Tables B1 to B12 below show the effects of selected compounds of the general formula (I) according to Table 1 on various harmful plants and an application rate corresponding to 1280 or 320 g/ha, which were obtained by the experimental procedure mentioned above.

[5] = test system: Stellaria media (STEME); experiment: Herbicidal post-emergence action (Table B8); details: visual rating about 3 weeks after treatment, 100% = plants have died, 0% = like control plants
Procedure, shortened: as §1

[6] = test system: Alopecurus myosuroides (ALOMY); experiment: Herbicidal post-emergence action (Table B9); details: 1280 g/ha; rated visually after about 3 weeks; 100% = plants have died, 0% = like control plants
Procedure, shortened: as §1

[7] = test system: Digitaria sanguinalis (DIGSA); experiment: Herbicidal post-emergence action (Table B10); details: dosage 1280 g/ha; visual rating about 3 weeks after treatment; 100% = plants have died, 0% = like control plants
Procedure, shortened: as §1

[8] = test system: Bassia scoparia (KCHSC); experiment: Herbicidal post-emergence action (Table B11); details: visual rating about 3 weeks after treatment, 100% = plants have died, 0% = like control plants
Procedure, shortened: as §1

[9] = test system: Veronica persica (VERPE); experiment: Herbicidal post-emergence action (Table B12); details: visual rating about 3 weeks after treatment, 100% = plants have died, 0% = like control plants
Procedure, shortened: as §1

[10] = test system: Poa annua (POAAN); experiment: Herbicidal pre-emergence action, test C (Table C3); details: visual scoring after about 3 weeks, 100% = plants have died, 0% = like control plants
Procedure, shortened: (§2)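 Compounds formulated as WP or EC were sprayed onto soil covering freshly sown weed seeds at 600 L/ha water with 0.5% additive, at 1280 or 320 g/ha. Pots were kept in a greenhouse. After about 3 weeks, damage was scored visually as % versus untreated controls (100% = plants dead).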

[11] = test system: Setaria viridis (SETVI); experiment: Herbicidal pre-emergence action, test C (Table C4); details: dosage 1280 g/ha; visual scoring after about 3 weeks; 100% = plants have died, 0% = like control plants
Procedure, shortened: as §2

[12] = test system: Abutilon theophrasti (ABUTH); experiment: Herbicidal pre-emergence action, test C (Table C5); details: dosage 1280 g/ha; visual scoring after about 3 weeks; 100% = plants have died, 0% = like control plants
Procedure, shortened: as §2

[13] = test system: Amaranthus retroflexus (AMARE); experiment: Herbicidal pre-emergence action, test C (Table C6); details: visual scoring after about 3 weeks, 100% = plants have died, 0% = like control plants
Procedure, shortened: as §2

[14] = test system: Matricaria inodora (MATIN); experiment: Herbicidal pre-emergence action, test C (Table C7); details: visual scoring after about 3 weeks, 100% = plants have died, 0% = like control plants
Procedure, shortened: as §2

[15] = test system: Stellaria media (STEME); experiment: Herbicidal pre-emergence action, test C (Table C8); details: visual scoring after about 3 weeks, 100% = plants have died, 0% = like control plants
Procedure, shortened: as §2

[16] = test system: Alopecurus myosuroides (ALOMY); experiment: Herbicidal pre-emergence action, test C (Table C9); details: dosage 1280 g/ha; visual scoring after about 3 weeks; 100% = plants have died, 0% = like control plants
Procedure, shortened: as §2

[17] = test system: Digitaria sanguinalis (DIGSA); experiment: Herbicidal pre-emergence action, test C (Table C10); details: visual scoring after about 3 weeks, 100% = plants have died, 0% = like control plants
Procedure, shortened: as §2

[18] = test system: Veronica persica (VERPE); experiment: Herbicidal pre-emergence action, test C (Table C12); details: dosage 1280 g/ha, visual scoring vs untreated controls
Procedure, shortened: as §2

[19] = test system: harmful plants ABUTH, AMARE, ECHCG, LOLRI, MATIN, POAAN, SETVI, STEME, ALOMY, DIGSA, KCHSC and VERPE; experiment: Herbicidal post-emergence action, summary of Tables B1-B12; details: application rate of 1280 or 320 g of active ingredient per hectare; summary in words
Procedure, shortened: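 Greenhouse weeds in sandy loam treated post-emergence at the one-leaf stage, 2–3 weeks after sowing, with WP or EC formulations sprayed with 0.5% additive at 600 L/ha water, 1280 or 320 g/ha. Damage rated visually after about 3 weeks versus untreated controls (0% = like control, 100% = dead).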

[20] = test system: harmful plants ABUTH, AMARE, ECHCG, LOLRI, MATIN, POAAN, SETVI, STEME, ALOMY, DIGSA, KCHSC and VERPE; experiment: Herbicidal pre-emergence action (test C), summary of Tables C1-C12; details: application rate of 1280 or 320 g of active ingredient per hectare; summary in words
Procedure, shortened: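 Pre-emergence pot test in sandy loam: WP or EC formulations were sprayed onto the covering soil with 0.5% additive at 600 L/ha water, at 1280 or 320 g/ha. Plants were kept in the greenhouse, and activity was rated visually about 3 weeks later as % versus untreated controls (100% = dead).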

Compound	Post-emergence action against Poa annua (POAAN) ([1]; 320 g/ha)	Post-emergence action against Poa annua (POAAN) ([1]; 1280 g/ha)	Post-emergence action against Abutilon theophrasti (ABUTH) ([2]; 320 g/ha)	Post-emergence action against Abutilon theophrasti (ABUTH) ([2]; 1280 g/ha)	Post-emergence action against Amaranthus retroflexus (AMARE) ([3]; dosage 320 g/ha)	Post-emergence action against Amaranthus retroflexus (AMARE) ([3]; dosage 1280 g/ha)	Post-emergence action against Matricaria inodora (MATIN) ([4]; 1280 g/ha)	Post-emergence action against Stellaria media (STEME) ([5]; dosage 1280 g/ha)	Post-emergence action against Veronica persica (VERPE) ([9]; dosage 320 g/ha)	Post-emergence action against Veronica persica (VERPE) ([9]; dosage 1280 g/ha)	Pre-emergence action against Poa annua (POAAN) ([10]; dosage 320 g/ha)	Pre-emergence action against Poa annua (POAAN) ([10]; dosage 1280 g/ha)	Pre-emergence action against Setaria viridis (SETVI) [11]	Pre-emergence action against Amaranthus retroflexus (AMARE) ([13]; dosage 320 g/ha)	Pre-emergence action against Amaranthus retroflexus (AMARE) ([13]; dosage 1280 g/ha)	Pre-emergence action against Alopecurus myosuroides (ALOMY) [16]	Pre-emergence action against Digitaria sanguinalis (DIGSA) ([17]; dosage 1280 g/ha)	Pre-emergence action against Veronica persica (VERPE) [18]	herbicidal activity against the harmful plants of Tables B1-B12 in post-emergence treatment [19]	herbicidal activity against the harmful plants of Tables C1-C12 in pre-emergence treatment [20]	further results
Cc1cc(C)c(-c2cc(C(F)F)no2)c(Oc2ncc(Cl)cc2F)c1 [Example 1-79]	100%	100%	100%	100%	100%	100%	90%	100%	100%	100%	90%	100%	100%	100%	100%	90%	100%	100%	very good herbicidal activity	very good herbicidal activity	Post-emergence action against Stellaria media (STEME) ([5]; dosage 320 g/ha): 100%; Post-emergence action against Alopecurus myosuroides (ALOMY) [6]: 90%; Post-emergence action against Digitaria sanguinalis (DIGSA) [7]: 100%; Post-emergence action against Bassia scoparia (KCHSC) ([8]; dosage 320 g/ha): 90%; Post-emergence action against Bassia scoparia (KCHSC) ([8]; dosage 1280 g/ha): 90%; Pre-emergence action against Abutilon theophrasti (ABUTH) [12]: 90%; Pre-emergence action against Matricaria inodora (MATIN) ([14]; dosage 320 g/ha): 100%; Pre-emergence action against Matricaria inodora (MATIN) ([14]; dosage 1280 g/ha): 100%; Pre-emergence action against Stellaria media (STEME) ([15]; dosage 320 g/ha): 100%; Pre-emergence action against Stellaria media (STEME) ([15]; dosage 1280 g/ha): 100%
Fc1cc(Cl)cnc1Oc1ccccc1-c1ccc(Cl)cn1 [Example 1-74]	100%	100%	90%	100%	100%	100%	100%	90%	100%	100%	100%	100%	100%	90%	90%	100%	100%	90%	very good herbicidal activity	very good herbicidal activity	Post-emergence action against Matricaria inodora (MATIN) ([4]; 320 g/ha): 100%; Pre-emergence action against Digitaria sanguinalis (DIGSA) ([17]; dosage 320 g/ha): 90%
